# Results: patent EP2145538A1 (priority 2008, dated 2010)
# Several values for one entry are separate records, joined by “and”; a condition that tells them apart may be missing. Equal entries are not always repeated. Entries after “also recorded” stand apart in the source; their conditions may differ. Where two headings read alike, the source gives them in different places.
# How the values were obtained:
# Amylase aus Bacillus sp. = experiment: Amylase activity assay in microtiter plates (dye-labelled starch substrate), commercial enzyme; type: biochemical; conditions: for Hemmung der Enzymaktivität: result in words
# Excerpt: (§1) Diese Methode basiert auf folgendem Prinzip:
# Humanspeichelamylase = target: T1, Humanspeichelamylase (Homo sapiens, UniProt P0DUB6); experiment: as above; type: biochemical; conditions: for Hemmung der Enzymaktivität: result in words
# T1 construct: purchased Sigma
# T1 sequence (P0DUB6 16-511): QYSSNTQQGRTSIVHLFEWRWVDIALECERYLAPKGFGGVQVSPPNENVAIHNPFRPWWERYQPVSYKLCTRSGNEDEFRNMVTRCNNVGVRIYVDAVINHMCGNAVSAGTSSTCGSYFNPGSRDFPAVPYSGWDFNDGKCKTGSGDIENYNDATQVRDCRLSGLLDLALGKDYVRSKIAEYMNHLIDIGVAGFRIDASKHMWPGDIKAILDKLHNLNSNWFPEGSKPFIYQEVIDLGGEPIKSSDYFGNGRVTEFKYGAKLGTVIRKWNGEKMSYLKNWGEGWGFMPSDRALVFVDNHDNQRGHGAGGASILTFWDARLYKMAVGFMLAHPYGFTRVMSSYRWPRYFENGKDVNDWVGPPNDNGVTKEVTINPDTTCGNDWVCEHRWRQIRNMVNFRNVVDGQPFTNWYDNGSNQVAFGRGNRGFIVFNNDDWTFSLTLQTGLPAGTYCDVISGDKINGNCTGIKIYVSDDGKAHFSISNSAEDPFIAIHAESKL
# Excerpt: as §1
# [1] = target: Amylase aus Aspergillus oryzae (Aspergillus oryzae, UniProt P0C1B3); experiment: Amylase activity assay in microtiter plates (dye-labelled starch substrate), commercial enzymes; type: biochemical; conditions: both Aspergillus amylases (35 U/mg Fluka, 200 U/mg Sigma); result in words
# Excerpt: as §1
# [2] = system: Amylasen aus Kulturfiltrat (Strohextrakt) von in vitro angezogenem Fusarium graminearum; type: biochemical; conditions: for Hemmung der Enzymaktivität: result in words
# [3] = system: Amylasen von mit F. graminearum infizierten Pflanzen; type: biochemical, Fusarium graminearum; conditions: for Hemmung der Enzymaktivität: result in words
# Fusarium graminearum [4] = experiment: microbe, parasite or virus in culture; type: cell-based; conditions: for Einfluss auf das Wachstum von Fusarium graminearum: Saccharose as sole C source, up to 14 days
# Fusarium graminearum [5] = type: in vivo; conditions: for Fusarium Protein Equivalent (µg /g), Mean: roots; for Fusarium Protein Equivalent (µg /g), Mean / Fusarium Protein Equivalent (µg/g), Mittelwert: 2 weeks after sowing; for Fusarium Protein Equivalent (µg/g), Mittelwert: above-ground parts; for Aussehen der behandelten, infizierten Pflanzen (Fotos): folded filter, very high infection pressure; for Reduktion des Befalls der Wurzeln (ELISA): roots of infected wheat seedlings on folded filter
# [6] = system: Blumeria graminis f. sp. tritici; experiment: Powdery mildew rating on sprayed wheat plants (MOLL et al. 1996); type: in vivo; conditions: 7 dpi; spray treatment at 3-leaf stage; AI-1 and AI-2 1 mg/ml, CI 100 µg/ml; Kontrolle 60
# Excerpt: Nach einer Sprühbehandlung der Weizenpflanzen im 3-Blatt-Stadium und anschließender Inokulation (nach Abtrocknen) mit Mehltau Blumeria graminis f. sp. tritici sind eindeutige Hemmeffekte zu erkennen (Figur 25-27). Eine Bonitur nach MOLL et al. (1996) ergab für den Amylase-Inhibitor AI-1 eine Befallsreduktion von 60% auf 7%, für den Amylase-Inhibitor AI-2 auf 1 % und für den Cellulase-Inhibitor CI auf 10% (Tabelle 3). Tab. 3: Bonitur des Mehltaubefalls (Blumeria graminis f. sp. tritici) nach MOLL et al. (1996) 7 dpi.
# Erbsen = experiment: Plant tolerance: germination of peas after imbibition in inhibitor solution; type: in vivo; conditions: imbibition in a solution of 1 mg/ml; result in words
# Weizenpflanzen = conditions: in vivo
# Fusarium graminearum [7] = type: in vivo
# [8] = target: T2, Cellobiohydrolase I (CBH I) (Trichoderma reesei, UniProt P62694); conditions: result in words; cited from earlier work
# T2 sequence (P62694 18-513): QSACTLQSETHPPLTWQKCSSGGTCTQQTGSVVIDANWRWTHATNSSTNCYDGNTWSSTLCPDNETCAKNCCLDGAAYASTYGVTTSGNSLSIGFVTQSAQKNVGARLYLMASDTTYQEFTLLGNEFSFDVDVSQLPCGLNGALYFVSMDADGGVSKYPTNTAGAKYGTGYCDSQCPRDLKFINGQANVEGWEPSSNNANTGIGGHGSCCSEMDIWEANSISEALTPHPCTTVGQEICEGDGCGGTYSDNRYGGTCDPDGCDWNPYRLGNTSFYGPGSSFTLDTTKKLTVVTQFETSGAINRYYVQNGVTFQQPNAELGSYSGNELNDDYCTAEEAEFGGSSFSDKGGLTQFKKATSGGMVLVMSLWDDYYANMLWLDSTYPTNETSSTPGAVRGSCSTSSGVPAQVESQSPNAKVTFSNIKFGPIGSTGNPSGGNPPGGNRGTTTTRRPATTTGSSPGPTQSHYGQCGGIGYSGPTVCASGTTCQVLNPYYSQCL
# Endoglukanase II (EG II) = target: T3, Endoglukanase II (EG II) (Trichoderma reesei, UniProt P07982); conditions: result in words; cited from earlier work
# T3 sequence (P07982 22-418): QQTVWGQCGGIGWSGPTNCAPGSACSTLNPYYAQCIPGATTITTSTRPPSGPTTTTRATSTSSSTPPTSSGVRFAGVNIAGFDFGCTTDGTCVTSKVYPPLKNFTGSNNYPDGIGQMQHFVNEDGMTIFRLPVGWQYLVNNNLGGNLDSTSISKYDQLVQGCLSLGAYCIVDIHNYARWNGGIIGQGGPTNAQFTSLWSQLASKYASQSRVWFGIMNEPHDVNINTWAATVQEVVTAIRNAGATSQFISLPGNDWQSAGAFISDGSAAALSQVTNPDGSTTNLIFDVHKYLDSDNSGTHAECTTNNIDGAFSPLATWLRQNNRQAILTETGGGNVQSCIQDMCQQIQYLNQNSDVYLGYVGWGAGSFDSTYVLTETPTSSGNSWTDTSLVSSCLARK
# [9] = infected with F.g. + inhibitor, infected control 1261,2
# [10] = infected with F.g. + inhibitor, infected control 341,44
# [11] = Stärke as sole C source, 14 days
compound,measurement,setting,value
"OCCN1C[C@H](O)[C@@H](O)[C@H](O)[C@H]1CO [AI-2, Miglitol]",Hemmung der Enzymaktivität,Amylase aus Bacillus sp.,weder die Humanamylase noch die verwendeten käuflichen Amylasen aus Bakterien bzw. Pilzen hemmt; also recorded: nicht zu hemmen vermochte
same,Hemmung der Enzymaktivität,Humanspeichelamylase,weder die Humanamylase noch die verwendeten käuflichen Amylasen aus Bakterien bzw. Pilzen hemmt; also recorded: nicht zu hemmen vermochte
same,Hemmung der Enzymaktivität,[1],weder die Humanamylase noch die verwendeten käuflichen Amylasen aus Bakterien bzw. Pilzen hemmt; also recorded: nicht zu hemmen vermochte
same,Hemmung der Enzymaktivität,[2],konnte weder die im Handel erhältlichen Amylasen bzw. Cellulasen der verschiedenen Mikroorganismen noch die von Fusarium graminearum in vitro oder in der Pflanze gebildeten Amylasen inhibieren
same,Hemmung der Enzymaktivität,[3],wirkungslos; also recorded: keine Wirkung; also recorded: konnte weder die im Handel erhältlichen Amylasen bzw. Cellulasen der verschiedenen Mikroorganismen noch die von Fusarium graminearum in vitro oder in der Pflanze gebildeten Amylasen inhibieren
same,Einfluss auf das Wachstum von Fusarium graminearum,Fusarium graminearum [4]; result in words,keinen Einfluss
same,Einfluss auf das Pilzwachstum,"Fusarium graminearum [4]; Stärke as sole C source, result in words",keinen Einfluss
same,Einfluss auf das Wachstum des Pilzes in vitro,Fusarium graminearum [4]; result in words,keinerlei hemmenden Einfluss
same,"Fusarium Protein Equivalent (µg /g), Mean",Fusarium graminearum [5]; [9],"813,0 µg /g"
same,"Fusarium Protein Equivalent (µg /g), Mean",Fusarium graminearum [5]; not infected (K) + inhibitor,"7,6 µg /g"
same,Befall (%),[6],1%
same,Hemmung der Keimung,Erbsen,vollständig
same,Einfluss auf das ausgewachsene Blatt,Weizenpflanzen,keinen Einfluss auf das ausgewachsene Blatt
same,Hemmung der Keimung,Weizenpflanzen,vollständig
same,Hemmung der Keimung der Weizenpflanzen,Weizenpflanzen,"so stark hemmte, dass sich Jungpflanzen nicht entwickeln konnten"
"CC1OC(OC2C(CO)OC(OC3C(CO)OC(O)C(O)C3O)C(O)C2O)C(O)C(O)C1NC1C=C(CO)C(O)C(O)C1O (stereo not drawn) [AI-1, Acarbose]",Hemmung der Enzymaktivität,"Amylase aus Bacillus sp.; 0,5 mg/ml","ebenfalls gehemmt, jedoch durch diese Konzentration nicht total ausschaltet"
same,IC100,"Humanspeichelamylase; Humanamylase (500 U/mg, Sigma), read-out: Konzentration, bei der die Amylase vollständig / total gehemmt wird",250 µg/mL
same,Hemmung der Enzymaktivität,[1],nicht oder nur sehr schwach beeinflusst
same,"Konzentration, bei der die Amylasen total gehemmt wurden",[2],"0,06 mg/ml"
same,Amylase-Aktivität reduziert bis auf,"[2]; 5 µg/ml, remaining activity",28%
same,Amylasen gehemmt bis auf,"[3]; 0,5 mg/ml, not totally switched off","69,2%"
same,Hemmung der Enzymaktivität,[3],"starke, wenn auch nicht vollständige Hemmung"
same,MIC,"Fusarium graminearum [4]; Fusarium graminearum, 336 h, read-out: Konzentration, bei der das Wachstum total gehemmt wird",30 µg/mL
same,inhibition of growth at 15 µg/mL,"Fusarium graminearum [4]; Fusarium graminearum, read-out: Hemmung des Wachstums",~50%
same,Einfluss auf das Wachstum von Fusarium graminearum,Fusarium graminearum [4]; result in words,keinen negativen Einfluss; also recorded: sogar gefördert
same,Faktor effektiver als der Cellulase-Inhibitor gegenüber Stärke als Substrat,"Fusarium graminearum [4]; total inhibition, 30 µg/ml versus 100 µg/ml",3
same,"Fusarium Protein Equivalent (µg/g), Mittelwert",Fusarium graminearum [5]; [10],"25,2 µg/g"
same,"Fusarium Protein Equivalent (µg/g), Mittelwert",Fusarium graminearum [5]; not infected (K) + inhibitor,"2,2 µg/g"
same,"Aussehen der behandelten, infizierten Pflanzen (Fotos)",Fusarium graminearum [5]; result in words,fast normal aussehen
same,Effekt auf der Basis des Frischgewichtes,"Fusarium graminearum [5]; infected wheat seedlings on folded filter, 2 weeks, result in words",starke befallreduzierende Effekt; also recorded: positive Effekt
same,Reduktion des Befalls der Wurzeln (ELISA),Fusarium graminearum [5]; 2 weeks,66% and 61%
same,"Fusarium Protein Equivalent (µg /g), Mean",Fusarium graminearum [5]; [9],"554,8 µg /g"
same,"Fusarium Protein Equivalent (µg /g), Mean",Fusarium graminearum [5]; not infected (K) + inhibitor,"6,3 µg /g"
same,Reduktion der Pilzmenge (ELISA),"Fusarium graminearum [7]; Versuch 1, 4 weeks, seed dip treatment",66%
same,Hemmung des Pilzwachstums (ELISA),"Fusarium graminearum [7]; Versuch 1, 4 weeks, seed dip treatment, result in words",vollständige Hemmung
same,Hemmung des Pilzwachstums / Reduktion der Pilzmenge (ELISA),"Fusarium graminearum [7]; Versuch 2, 4 weeks, seed dip treatment",60% and 85%
same,Blattfrischgewicht infizierter Pflanzen,"Fusarium graminearum [7]; soil substrate, greenhouse, 4 weeks, AI-1 1 mg /ml seed treatment, result in words",hebt diese Frischgewichtsdepression auf; also recorded: gleiche Frischgewicht wie die nicht infizierte Kontrolle
same,Befall (%),[6],7%
same,Hemmung von Keimung und Pflanzenwachstum,Weizenpflanzen,weder der Amylase-Inhibitor AI-1 noch der amylasehemmende Wirkung zeigende Cellulose-Inhibitor die Keimung und das Pflanzenwachstum hemmten
Na2PdCl6 · 4 H2O [CI],"Konzentration, bei der die Amylase total gehemmt wird",Amylase aus Bacillus sp.; Bacillus-Amylase,100 µg/mL
same,Hemmung der Enzymaktivität,Amylase aus Bacillus sp.,bei höherer Konzentration hemmte
same,"Konzentration, bei der die Amylase vollständig / total gehemmt wird","Humanspeichelamylase; Humanamylase (500 U/mg, Sigma)",25 µg/mL
same,Hemmung der Enzymaktivität,Humanspeichelamylase,bei höherer Konzentration hemmte
same,Hemmung der Enzymaktivität,[1],unbeeinflusst blieben
same,Hemmung der Enzymaktivität,[2],nicht bzw. nur unwesentlich hemmt
same,Hemmung der Enzymaktivität,[2]; listed as Cellulase-Inhibitor,bei höheren Konzentrationen auch die Amylasen des Fusarium-Kulturfiltrates hemmt; also recorded: unbeeinflusst blieben
same,Hemmung der Enzymaktivität,[3],nicht bzw. nur unwesentlich hemmt
same,Hemmung der Enzymaktivität,[3]; listed as Cellulase-Inhibitor,unbeeinflusst blieben
same,Hemmung des Pilzwachstums,"Fusarium graminearum [4]; Cellulose as C source, 12,5 µg/ml, 14 days, result in words",deutliche Wachstumsdepression
same,Wachstumsdepression,"Fusarium graminearum [4]; Cellulose as C source, ab 50 bis 100 µg/mL, 14 days",100%
same,"Konzentration, bei der das Wachstum total gehemmt ist",Fusarium graminearum [4]; Cellulose as sole C source,50 µg/mL
same,Wachstumsrate reduziert um,"Fusarium graminearum [4]; Cellulose as sole C source, 12,5 µg/ml",ca. 50%
same,Einfluss auf das Wachstum von Fusarium graminearum,Fusarium graminearum [4]; result in words,nicht gehemmt
same,Einfluss auf das Wachstum,"Fusarium graminearum [4]; Stärke as sole C source, 6,5-12,5 µg/ml, result in words",verifizierbare Wachstumsförderung
same,"Konzentration, ab der das Wachstum partiell gehemmt wird",Fusarium graminearum [4]; [11],≥ 75 µg/mL
same,"Konzentration, bei der das Wachstum total gehemmt wird",Fusarium graminearum [4]; [11],≥ 100 µg/mL
same,"Konzentration, bei der das Wachstum total gehemmt wird","Fusarium graminearum [4]; Stärke as sole C source, 14 days, listed as Cellulase-Inhibitor",100 µg/mL
same,"Fusarium Protein Equivalent (µg/g), Mittelwert",Fusarium graminearum [5]; [10],"66,34 µg/g"
same,"Fusarium Protein Equivalent (µg/g), Mittelwert",Fusarium graminearum [5]; not infected (K) + inhibitor,"0,04 µg/g"
same,"Aussehen der behandelten, infizierten Pflanzen (Fotos)",Fusarium graminearum [5]; result in words,"grüner aus, sind aber im Wuchs doch deutlich reduziert"
same,Reduktion des Befalls der Wurzeln (ELISA),Fusarium graminearum [5]; 2 weeks,51%
same,"Fusarium Protein Equivalent (µg /g), Mean",Fusarium graminearum [5]; [9],"618,9 µg /g"
same,"Fusarium Protein Equivalent (µg /g), Mean",Fusarium graminearum [5]; not infected (K) + inhibitor,"49,0 µg /g"
same,Hemmung des Pilzwachstums,"Fusarium graminearum [7]; soil substrate, greenhouse, 4 weeks, both trials, CI 100µg /ml seed treatment, result in words",nicht hemmt; also recorded: keinerlei Effekt
same,Befall (%),[6],10%
same,Hemmung von Keimung und Pflanzenwachstum,Weizenpflanzen,weder der Amylase-Inhibitor AI-1 noch der amylasehemmende Wirkung zeigende Cellulose-Inhibitor die Keimung und das Pflanzenwachstum hemmten
same,negativer Effekt auf das Pflanzenwachstum,Weizenpflanzen,keinerlei negativen Effekt auf das Pflanzenwachstum
same,Inhibition,[8],in starkem Maße zu inhibieren
same,Inhibition,Endoglukanase II (EG II),in starkem Maße zu inhibieren
